Consider two compounds from PMC5384453, “A multi-functional PEGylated gold(III) compound: potent anti-cancer properties and self-assembly into nanostructures for drug co-delivery” (Chemical Science, 2016).

Read-outs that look alike come from different tables or passages of the source.

Usually IC50 stands for the concentration at which inhibition is half-maximal.

In one experiment the test system is HeLa. Description: In vitro cytotoxicity, MTT assay. Format: cell-based, human. Particulars: HeLa.
The test system of a further experiment is NCI-H460. In words: In vitro cytotoxicity, MTT assay. The experiment is classed as cell-based, human. The conditions noted are these: NCI-H460, MTT assay, 72 h incubation. (Tetrazolium dyes change colour on reduction, which living cells bring about.)
The next experiment relates to HCT116. In words: In vitro cytotoxicity, MTT assay. The experiment is classed as cell-based, human. The conditions noted are these: HCT116, MTT assay, 72 h incubation.
The test system of the next experiment is A2780. In words: In vitro cytotoxicity, MTT assay. The experiment is classed as cell-based, human. Particulars: A2780, MTT assay, 72 h incubation.
The next experiment concerns A2780cis. In words: In vitro cytotoxicity, MTT assay. Format: cell-based, human. Particulars: for IC50: A2780cis, MTT assay, 72 h incubation; for Resistance found in A2780cis: IC50 of A2780cis cells / IC50 of A2780 cells.
The next experiment concerns A2780adr. In words: In vitro cytotoxicity, MTT assay. Format: cell-based, human. Particulars: for IC50: A2780adr; for Resistance found in A2780adr: IC50 of A2780adr cells / IC50 of A2780 cells.
The next experiment relates to MIHA. In words: In vitro cytotoxicity, MTT assay. Format: cell-based.
The next experiment relates to NCM460. Description: In vitro cytotoxicity, MTT assay. Format: cell-based, human. The conditions noted are these: 72 h incubation.
A further experiment deals with CCD-19Lu. In words: In vitro cytotoxicity, MTT assay. Format: cell-based, human. The conditions noted are these: 72 h incubation.
A further experiment deals with CHEM-5. In words: In vitro cytotoxicity, MTT assay. The experiment is classed as cell-based, human. Particulars: CHEM-5, MTT assay, 72 h. The protocol: (§1) page 7: The gold content of the nanocomposites was determined by dissolving the nanocomposites in conc. HNO3 / conc. HCl solution mixture (9:1, v/v; 30 µL), followed by ICP-MS analysis. […] The nanocomposite (10 µL) was dissolved in acetonitrile (90 µL), and subjected to gentle shaking overnight. The solution mixture was then dried under vacuum, and re- dispersed in 0.1 vol% formic acid in water/acetonitrile (7/3, v/v; 1 mL) solution mixture. […] The mobile phase was 0.1 vol% formic acid in water/acetonitrile (7:3, v/v) solution mixture. […] The cells were then treated with a serial concentration of gold(III) complexes and incubated at 37 °C under a 5% CO2 atmosphere for 72 h. […] After incubation for 72 h, MTT in PBS solution (5 mg/mL, 10 μL) was added to each well. The plates were incubated at 37 °C under a 5% CO2 atmosphere for another 4 h, and the cells were lysed by the addition of SDS solution (10%, w/w) with 0.01 M HCl (100 μL). After incubation in dark at 37 °C overnight, the cell viability after treatment was determined by a microtitre plate reader monitoring at the absorbance at 590 nm, P.7 page 8: which reflected the amount of blue formazan formed. IC50 values were then determined by CompuSyn S6 from three independent measurements. Study on the release of hydrolyzed product from 1 and 2 in aqueous buffer solutions by ICP-MS. […] At a predetermined time, an aliquot of solution was removed and dissolved in HNO3/HCl solution mixture (9:1, v/v; volume of aliquot: volume of acid mixture = 1:3). The solution mixture was heated at 65 °C with shaking overnight, and the gold content was determined by ICP-MS from three independent aliquots. […] 37 °C for 24 h. […] Analysis of cell lysate of HCT116 cells treated with complexes 1 and 3 by UPLC- QTOF-MS. […] All the cells were harvested, washed with PBS solution for three times and dispersed in ice-cold water. The cell suspension was then added to ice-cold acetonitrile (1:3, v/v), vortexed for 5 min, and centrifuged at 10,000 rpm at 4 °C. The supernatant was collected, dried under vacuum and the solid was re-dissolved in acetonitrile (HPLC grade) for UPLC- QTOF-MS experiments. The mobile phase was a mixture of 0.1% formic acid in water (phase A) and 0.1% formic acid in acetonitrile (phase B). […] P.46

A further experiment concerns L02. In words: In vitro cytotoxicity, MTT assay. Format: cell-based, human. Particulars: 72 h. The procedure:
as §1

For a further experiment, the system named is HCT116 cells. Description: Time-dependent induction of apoptosis, Caspase-3/7 Green ReadyProbes fluorescence microscopy. The experiment is classed as cell-based, human. The conditions noted are these: HCT116, NC1 ([1] = 3.5 μM and [DOX] = 0.5 μM) or DOX alone (0.5 μM), Caspase-3/7 Green Reagent. The procedure:
B from 20.1 to 25 min and returned to initial conditions and equilibrated for 3 minutes.
The flow rate was 0.4 mL/min and the injection volume was 2 µL. The UPLC-QTOF-MS chromatograms of 1, 3, 4 and solvent control in acetonitrile were also recorded for the interpretation of UPLC-QTOF-MS chromatograms of the cell lysate.
Cellular uptake experiments. HCT116, A2780 and A2780adr (2×10 5 cells), and MIHA and NCM460 (3.5×10 5 cells) cells were grown on 6-well plates at 37 °C under an atmosphere of 5% CO2 for 48 h. The culture medium was then removed, washed with PBS solution, and incubated with culture medium containing nanostructures of 1 […]
Au1a (2 µM; with 1 vol% DMSO). At a predetermined time, the culture medium was removed and washed with PBS solution for three times. The cells were then harvested and dispersed in ice-cold water. An aliquot of the cell suspension was subjected to Bio-rad protein assay with a microtitre plate reader at the absorbance at 595 nm, using bovine serum albumin as the protein standard. […] The solution mixture was heated at 65 °C with shaking overnight, and the gold content was determined by ICP-MS. […]
then removed and washed with PBS solution. The cells were then incubated with culture medium containing nanostructures of 1 (2 µM) and CellEvent Caspase-3/7 Green ReadyProbes Reagent (30 µL), or Au1a (2 µM; with 1 vol% DMSO) and CellEvent Caspase-3/7 Green ReadyProbes Reagent (30 µL) at 37 °C under an atmosphere of 5% CO2. Fluorescence images at different time intervals were recorded by the fluorescence microscope without washing the cells. […]
once every 2–3 days. The tumor volume was calculated by the equation: Volume (mm3) = l×w2/2, where l and w were the length and width of the tumor. At the end of the treatment, the nude mice were sacrificed and the tumor weight was measured. […]
At a predetermined time, the culture medium was removed and washed with PBS solution for three times. […] An aliquot of the cell suspension was subjected to Bio-rad protein assay with a microtitre plate reader at the absorbance at 595 nm, using bovine serum albumin as the protein standard. […]

[1] abbreviates: MTT assay, 72 h incubation, read-out: IC50.
The mark [2] stands for this setting: 72 h, read-out: Total dose at IC50.

Procedure for A2780adr: (§2) In vitro cytotoxicity assays. HeLa, NCI-H460, HCT116, A2780, A2780cis and
(§3) cells), respectively, were seeded in 96-well plates for 24 h. The cells were then treated with a serial concentration of gold(III) complexes and incubated at 37 °C under a 5% CO2 atmosphere for 72 h. For nanostructures of 1, 2 and NC1, they were dissolved in
(§4) cisplatin were dissolved in culture medium-DMSO solution mixture (99:1, v/v).
Procedure for A2780cis: as §2, §3, §4
Procedure for CCD-19Lu: as §2, §3, §4
Procedure for HeLa: as §2, §3, §4
Procedure for MIHA: as §2, §3, §4
Procedure for NCI-H460: as §2, §3, §4
Procedure for NCM460: as §2, §3, §4

`N.N.[Cl][Pt][Cl]` [Cisplatin, cisplatin, reference compound]: the IC50 worked out at 19800 ± 1420 nM with HeLa (setting [1]); 65400 ± 5060 nM with NCI-H460; 15700 ± 2200 nM with HCT116; 2590 ± 300 nM in the experiment with A2780; 8360 ± 50 nM in the experiment on A2780cis; 12700 ± 1830 nM in the experiment with A2780adr (setting [1]). In addition, the 50% inhibitory concentration (IC50) amounted to 17600 ± 1310 nM in the experiment with MIHA (setting [1]); 12300 ± 870 nM with NCM460; 49100 ± 5430 nM in the experiment with CCD-19Lu; 13000 ± 200 nM in the experiment on CHEM-5; 5900 ± 20 nM in the experiment with L02. Besides, the “Resistance found in A2780cis” value with A2780cis came to 3.23. Further, the “Resistance found in A2780adr” value in the experiment on A2780adr was found to be 5.
As for `COc1cccc2c1C(=O)c1c(O)c3c(c(O)c1C2=O)C[C@@](O)(C(=O)CO)C[C@@H]3O[C@H]1C[C@H](N)[C@H](O)[C@H](C)O1` [DOX, Doxorubicin, reference compound], the IC50 came to 570 nM in the experiment on HeLa (setting [2]); 570 ± 60 nM in the experiment on HeLa (setting [1]); 570 nM in the experiment on HeLa (read-out: DOX at IC50, 72 h); 40 ± 10 nM with NCI-H460; 140 ± 20 nM in the experiment with HCT116; 50 ± 10 nM with A2780. The IC50 was found to be 50 ± 10 nM in the experiment with A2780cis; 680 nM in the experiment with A2780adr (setting [2]); 680 ± 50 nM in the experiment on A2780adr (setting [1]); 680 nM in the experiment on A2780adr (read-out: DOX at IC50, 72 h); 100 nM with MIHA (setting [2]); 100 ± 10 nM in the experiment on MIHA (setting [1]). Besides, in the experiment with MIHA (read-out: DOX at IC50, 72 h), the 50% inhibitory concentration (IC50) turned out to be 100 nM. The “Resistance found in A2780cis” value with A2780cis was 1.20. Also, the “Resistance found in A2780adr” value with A2780adr stood at 14.3. Moreover, the “incubation time for induction of apoptosis” value in the experiment on HCT116 cells was determined as 30 h.
